The values that follow come from ChEMBL document CHEMBL1143815, “Spread of extended-spectrum beta-lactamase CTX-M-producing escherichia coli clinical isolates in community and nosocomial environments in Portugal” (2007).

Type in all cases: functional
The subject of assay [1] is Escherichia coli. The assay can be described thus: Antibacterial activity against Escherichia coli INSRA5776 isolates expressing CTX-M-14 and TEM-1B enzymes by agar dilution method. In general terms: In agar dilution the substance is mixed into plates at graded concentrations.
In assay [2] the test system is Escherichia coli. The assay is described as follows: Antibacterial activity against Escherichia coli DH5 alpha isolates by agar dilution method.
The subject of assay [3] is Escherichia coli. The assay is described as follows: Antibacterial activity against Escherichia coli DH5 alpha-URA5776 isolates expressing CTX-M-14 enzyme by agar dilution method.
In assay [4] the test system is Escherichia coli. The assay can be described thus: Antibacterial activity against Escherichia coli INSRA5905 isolates expressing CTX-M-15 and TEM-1B enzymes by agar dilution method.
The test system of assay [5] is Escherichia coli. The assay can be described thus: Antibacterial activity against Escherichia coli DH5 alpha-URA5905 isolates expressing CTX-M-15 and TEM-1B enzymes by agar dilution method.
Assay [6] has as its system Escherichia coli. The assay is described as follows: Antibacterial activity against Escherichia coli INSRA5924 isolates expressing CTX-M-32 and TEM-1B enzymes by agar dilution method.
Assay [7] deals with Escherichia coli. The assay is described as follows: Antibacterial activity against Escherichia coli DH5 alpha-URA5924 isolates expressing CTX-M-32 by agar dilution method.
In assay [8] the test system is Escherichia coli. The assay can be described thus: Antibacterial activity against CTX-M group 1 enzyme producing Escherichia coli isolates by broth microdilution method. For orientation: Broth dilution looks for growth in wells or tubes with falling amounts of substance.
Assay [9] has as its system Escherichia coli. The assay can be described thus: Antibacterial activity against CTX-M group 1 enzyme producing Escherichia coli isolates assessed as percent nonsusceptible isolates by broth microdilution method.
The subject of assay [10] is Escherichia coli. The assay can be described thus: Antibacterial activity against CTX-M group 9 enzyme producing Escherichia coli isolates by broth microdilution method.
For assay [11], the system named is Escherichia coli. The assay can be described thus: Antibacterial activity against CTX-M group 9 enzyme producing Escherichia coli isolates assessed as percent nonsusceptible isolates by broth microdilution method.

≈ marks a conversion by molar mass, not a printed value.

A word on the MIC: it is the least concentration at which growth counts as inhibited. For the compound `CC1(C)S[C@@H]2[C@H](/N=C\N3CCCCCC3)C(=O)N2[C@H]1C(=O)O`, the MIC in the assay on Escherichia coli [1] is 1 µg/mL (≈ 3.07 µM); in the assay with Escherichia coli [2] it was 0.125 µg/mL (≈ 0.384 µM); against Escherichia coli [3], 0.5 µg/mL (≈ 1.54 µM); in the assay on Escherichia coli [4], 2 µg/mL (≈ 6.15 µM); in the assay on Escherichia coli [5] it was 2 µg/mL (≈ 6.15 µM); with Escherichia coli [6], 2 µg/mL (≈ 6.15 µM). The MIC in the assay with Escherichia coli [7] was 0.5 µg/mL (≈ 1.54 µM).

What is called MIC50 is the lowest concentration that inhibits either 50% of growth or 50% of the strains tested, depending on the study. The low end stands for greater potency, the high end for weaker potency. As usually defined, the MIC90 is an inhibitory concentration at the 90% level, which refers to growth in some studies and to a panel of isolates in others. Read a low MIC90 as greater potency. For the compound `CC1(C)S[C@@H]2[C@H](NC(=O)C(C(=O)O)c3ccsc3)C(=O)N2[C@H]1C(=O)O` (single isomer, unassigned) [TICARCILLIN], the MIC in the assay on Escherichia coli [1] is above 4100 µg/mL; in the assay on Escherichia coli [2] it was 4 µg/mL (≈ 10.4 µM); against Escherichia coli [3], above 4100 µg/mL; with Escherichia coli [4], above 4100 µg/mL; in the assay with Escherichia coli [5], above 4100 µg/mL; against Escherichia coli [6], above 4100 µg/mL. Moreover, in the assay with Escherichia coli [7], the MIC was above 4100 µg/mL. For the same compound, the MIC50 in the assay on Escherichia coli [8] and in the assay with Escherichia coli [10] was above 64 µg/mL in each case. Besides, the MIC90 against Escherichia coli [8] and in the assay on Escherichia coli [10] was above 64 µg/mL each time. Besides, the Activity in the assay with Escherichia coli [9] and in the assay on Escherichia coli [11] was 100% throughout.

Turning to `CO/N=C(\C(=O)N[C@@H]1C(=O)N2C(C(=O)O)=C(CSc3nc(=O)c(O)nn3C)CS[C@H]12)c1csc(N)n1` (stereo in doubt) [CEFTRIAXONE], the MIC in the assay on Escherichia coli [1] was 32 µg/mL (≈ 57.7 µM); against Escherichia coli [2] it was 0.03 µg/mL (≈ 0.0541 µM); against Escherichia coli [3] it was 32 µg/mL (≈ 57.7 µM); against Escherichia coli [4] it was above 512 µg/mL; against Escherichia coli [5] it was 256 µg/mL (≈ 462 µM); in the assay with Escherichia coli [6] it was 256 µg/mL (≈ 462 µM). This compound gave an MIC against Escherichia coli [7] of 64 µg/mL (≈ 115 µM). In addition, the MIC50 with Escherichia coli [8] and against Escherichia coli [10] was above 32 µg/mL in each case. In addition, the MIC90 against Escherichia coli [8] and against Escherichia coli [10] was above 32 µg/mL each time. The Activity in the assay on Escherichia coli [9] and with Escherichia coli [11] was 100% in each case.

On to `CC1(C)S[C@@H]2[C@H](NC(=O)[C@H](N)c3ccc(O)cc3)C(=O)N2[C@H]1C(=O)O` [AMOXICILLIN], for which the MIC against Escherichia coli [1] is above 4100 µg/mL; with Escherichia coli [2] it was 8 µg/mL (≈ 21.9 µM); in the assay on Escherichia coli [3] it was above 4100 µg/mL; against Escherichia coli [4], above 4100 µg/mL; with Escherichia coli [5], above 4100 µg/mL; against Escherichia coli [6], above 4100 µg/mL. In the assay on Escherichia coli [7], the MIC is above 4100 µg/mL.

Take `CC1(C)S[C@@H]2[C@H](NC(=O)[C@H](N)c3ccccc3)C(=O)N2[C@H]1C(=O)O` [AMPICILLIN]: the MIC50 in the assay on Escherichia coli [8] and against Escherichia coli [10] was above 16 µg/mL each time. Moreover, the MIC90 against Escherichia coli [8] and with Escherichia coli [10] was above 16 µg/mL each time. The Activity in the assay with Escherichia coli [9] and with Escherichia coli [11] was 100% each time.

`Cc1nnc(SCC2=C(C(=O)O)N3C(=O)[C@@H](NC(=O)Cn4cnnn4)[C@H]3SC2)s1` [CEFAZOLIN]: the MIC50 against Escherichia coli [8] and against Escherichia coli [10] was above 16 µg/mL each time. Also, the MIC90 in the assay with Escherichia coli [8] and against Escherichia coli [10] was above 16 µg/mL each time. The Activity with Escherichia coli [9] and in the assay with Escherichia coli [11] was 100% throughout.

With `CCN1CCN(C(=O)N[C@@H](C(=O)N[C@@H]2C(=O)N3C(C(=O)O)=C(CSc4nnnn4C)CS[C@H]23)c2ccc(O)cc2)C(=O)C1=O` [CEFOPERAZONE], the MIC is 256 µg/mL (≈ 396 µM) against Escherichia coli [1]; at most 0.25 µg/mL against Escherichia coli [2]; 16 µg/mL (≈ 24.8 µM) against Escherichia coli [3]; above 512 µg/mL with Escherichia coli [4]; 256 µg/mL (≈ 396 µM) in the assay on Escherichia coli [5]; 256 µg/mL (≈ 396 µM) against Escherichia coli [6]. The compound further came in with an MIC with Escherichia coli [7] of 64 µg/mL (≈ 99.1 µM).

`CO/N=C(\C(=O)N[C@@H]1C(=O)N2C(C(=O)O)=C(COC(N)=O)CS[C@H]12)c1ccco1` [CEFUROXIME]: the MIC against Escherichia coli [1] is above 256 µg/mL; against Escherichia coli [2] it was 4 µg/mL (≈ 9.43 µM); in the assay on Escherichia coli [3] it was above 256 µg/mL; against Escherichia coli [4], above 256 µg/mL; against Escherichia coli [5], above 256 µg/mL; against Escherichia coli [6], above 256 µg/mL. This compound also showed an MIC with Escherichia coli [7] above 256 µg/mL. The MIC50 against Escherichia coli [8] and against Escherichia coli [10] was above 16 µg/mL in each case. Besides, the MIC90 in the assay with Escherichia coli [8] and against Escherichia coli [10] was above 16 µg/mL each time. Moreover, the Activity in the assay with Escherichia coli [9] and in the assay with Escherichia coli [11] was 100% throughout.

For `CC(=O)OCC1=C(C(=O)O)N2C(=O)[C@@H](NC(=O)Cc3cccs3)[C@H]2SC1` [CEPHALOTHIN], the MIC against Escherichia coli [1] is above 1020 µg/mL; in the assay with Escherichia coli [2], 8 µg/mL (≈ 20.2 µM); in the assay with Escherichia coli [3] it was 1020 µg/mL (≈ 2580 µM); against Escherichia coli [4], above 1020 µg/mL; with Escherichia coli [5], above 1020 µg/mL; in the assay on Escherichia coli [6], above 1020 µg/mL. In the assay with Escherichia coli [7], this compound had an MIC above 1020 µg/mL. For the same compound, the MIC50 in the assay with Escherichia coli [8] and against Escherichia coli [10] was above 16 µg/mL throughout. The MIC90 against Escherichia coli [8] and against Escherichia coli [10] was above 16 µg/mL throughout. Further, the Activity with Escherichia coli [9] and in the assay with Escherichia coli [11] was 100% each time.

With `O=C(O)c1cn(C2CC2)c2cc(N3CCNCC3)c(F)cc2c1=O` [CIPROFLOXACIN], the MIC against Escherichia coli [1] was 256 µg/mL (≈ 773 µM); in the assay on Escherichia coli [2] it was at most 0.125 µg/mL; with Escherichia coli [3], at most 0.125 µg/mL; against Escherichia coli [4] it was 1020 µg/mL (≈ 3090 µM); in the assay on Escherichia coli [5], at most 0.125 µg/mL; with Escherichia coli [7], at most 0.125 µg/mL. Moreover, the MIC50 was above 2 µg/mL against Escherichia coli [8] and at most 0.5 µg/mL in the assay on Escherichia coli [10]. The MIC90 in the assay on Escherichia coli [8] and against Escherichia coli [10] was above 2 µg/mL each time. In addition, the values for the Activity with Escherichia coli [9] and with Escherichia coli [11] were 98% and 33%, respectively.

Take `C[C@@H](O)[C@H]1C(=O)N2C(C(=O)O)=C(SCCNC=N)C[C@H]12` [IMIPENEM ANHYDROUS]: the MIC against Escherichia coli [1] was at most 0.06 µg/mL; against Escherichia coli [3], 0.5 µg/mL (≈ 1.67 µM); in the assay on Escherichia coli [4], 0.25 µg/mL (≈ 0.835 µM); against Escherichia coli [6] it was 0.125 µg/mL (≈ 0.418 µM); against Escherichia coli [7], 0.125 µg/mL (≈ 0.418 µM). Also, the MIC50 against Escherichia coli [8] and in the assay on Escherichia coli [10] was at most 0.5 µg/mL each time. For the same compound, the MIC90 against Escherichia coli [8] and against Escherichia coli [10] was at most 0.5 µg/mL each time. The Activity in the assay with Escherichia coli [9] and in the assay on Escherichia coli [11] was 0% each time.

Regarding `C[C@@H](O)[C@H]1C(=O)N2C(C(=O)O)=C(S[C@@H]3CN[C@H](C(=O)N(C)C)C3)[C@H](C)[C@H]12` [MEROPENEM], the MIC50 against Escherichia coli [8] and with Escherichia coli [10] was at most 1 µg/mL throughout. Further, the MIC90 against Escherichia coli [8] and against Escherichia coli [10] was at most 1 µg/mL each time. Further, the Activity in the assay with Escherichia coli [9] and in the assay with Escherichia coli [11] was 0% each time.

As to `CC1COc2c(N3CCN(C)CC3)c(F)cc3c(=O)c(C(=O)O)cn1c23` (stereo not given) [OFLOXACIN], the MIC50 is above 4 µg/mL with Escherichia coli [8] and at most 0.5 µg/mL against Escherichia coli [10]. The MIC90 against Escherichia coli [8] and against Escherichia coli [10] was above 4 µg/mL in each case. The values for the Activity in the assay on Escherichia coli [9] and in the assay with Escherichia coli [11] were 98% and 33%, respectively.

In the case of `CCN1CCN(C(=O)N[C@@H](C(=O)N[C@@H]2C(=O)N3[C@@H]2SC(C)(C)[C@@H]3C(=O)O)c2ccccc2)C(=O)C1=O` [PIPERACILLIN], the MIC with Escherichia coli [1] was 256 µg/mL (≈ 495 µM); in the assay with Escherichia coli [2], 2 µg/mL (≈ 3.86 µM); in the assay on Escherichia coli [3], 256 µg/mL (≈ 495 µM); against Escherichia coli [4] it was above 512 µg/mL; with Escherichia coli [5], 512 µg/mL (≈ 989 µM); against Escherichia coli [6], above 512 µg/mL. The compound further showed an MIC against Escherichia coli [7] of 512 µg/mL (≈ 989 µM). For the same compound, the MIC50 against Escherichia coli [8] and against Escherichia coli [10] was above 64 µg/mL each time. Further, the MIC90 in the assay on Escherichia coli [8] and in the assay on Escherichia coli [10] was above 64 µg/mL each time. Moreover, the Activity in the assay with Escherichia coli [9] and with Escherichia coli [11] was 100% throughout.

As to `COc1cc(Cc2cnc(N)nc2N)cc(OC)c1OC` [TRIMETHOPRIM], the MIC with Escherichia coli [1] was 64 µg/mL (≈ 220 µM); in the assay with Escherichia coli [2] it was at most 0.125 µg/mL; against Escherichia coli [3], above 64 µg/mL; in the assay with Escherichia coli [4], at most 0.125 µg/mL; in the assay with Escherichia coli [5] it was at most 0.125 µg/mL; against Escherichia coli [6] it was 0.25 µg/mL (≈ 0.861 µM). In the assay with Escherichia coli [7], this compound had an MIC of at most 0.125 µg/mL.
